The source of these data is ChEMBL document CHEMBL1138974 (Bioorg Med Chem Lett, 2006).

The nature of data set [1]: Intrinsic clearance in mouse microsome. The data set is classed as ADME. The following applies: microsomes.
A short description of data set [2]: Intrinsic clearance in human microsome. The data set is classed as ADME. The settings on record: microsomes.
Data set [3] addresses Voltage-gated inwardly rectifying potassium channel KCNH2 (Homo sapiens, UniProt Q12809). In words: Inhibition of hERG potassium channel expressed in CHO cells by whole cell patch clamp method. The data set is classed as toxicity, cell-based. A general note: hERG is a cardiac potassium channel; its block is linked to QT prolongation.
The nature of data set [4]: Dissociation constant, pKa of the compound. Format: physicochemical.
The target in data set [5] is T1, Sodium- and chloride-dependent glycine transporter 1 (Homo sapiens, UniProt P48067).
T1 sequence (P48067 whole entry): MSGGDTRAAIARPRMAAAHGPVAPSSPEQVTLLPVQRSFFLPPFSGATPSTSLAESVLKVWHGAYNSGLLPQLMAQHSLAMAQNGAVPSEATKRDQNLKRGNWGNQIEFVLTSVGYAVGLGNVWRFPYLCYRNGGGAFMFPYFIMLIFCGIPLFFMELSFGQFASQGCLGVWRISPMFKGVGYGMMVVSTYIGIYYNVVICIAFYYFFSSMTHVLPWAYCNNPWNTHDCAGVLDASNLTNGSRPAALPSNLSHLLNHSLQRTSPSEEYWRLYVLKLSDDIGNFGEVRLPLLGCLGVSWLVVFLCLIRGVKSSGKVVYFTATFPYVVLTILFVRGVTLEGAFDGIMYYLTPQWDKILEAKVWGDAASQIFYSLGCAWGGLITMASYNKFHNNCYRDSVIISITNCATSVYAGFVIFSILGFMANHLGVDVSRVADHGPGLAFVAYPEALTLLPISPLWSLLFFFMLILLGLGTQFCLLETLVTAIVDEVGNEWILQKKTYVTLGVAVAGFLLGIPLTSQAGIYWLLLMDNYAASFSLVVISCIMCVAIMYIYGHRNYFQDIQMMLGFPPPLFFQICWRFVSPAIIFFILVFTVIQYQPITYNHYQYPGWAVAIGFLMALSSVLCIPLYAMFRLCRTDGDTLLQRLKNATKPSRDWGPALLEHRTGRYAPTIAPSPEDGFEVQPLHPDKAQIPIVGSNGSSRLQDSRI
In words: (§1) Inhibition of [3H]glycine uptake at human GlyT1 by radiometric assay.

The target in data set [6] is T2, Sodium- and chloride-dependent glycine transporter 2 (Homo sapiens, UniProt Q9Y345).
T2 sequence (Q9Y345 whole entry): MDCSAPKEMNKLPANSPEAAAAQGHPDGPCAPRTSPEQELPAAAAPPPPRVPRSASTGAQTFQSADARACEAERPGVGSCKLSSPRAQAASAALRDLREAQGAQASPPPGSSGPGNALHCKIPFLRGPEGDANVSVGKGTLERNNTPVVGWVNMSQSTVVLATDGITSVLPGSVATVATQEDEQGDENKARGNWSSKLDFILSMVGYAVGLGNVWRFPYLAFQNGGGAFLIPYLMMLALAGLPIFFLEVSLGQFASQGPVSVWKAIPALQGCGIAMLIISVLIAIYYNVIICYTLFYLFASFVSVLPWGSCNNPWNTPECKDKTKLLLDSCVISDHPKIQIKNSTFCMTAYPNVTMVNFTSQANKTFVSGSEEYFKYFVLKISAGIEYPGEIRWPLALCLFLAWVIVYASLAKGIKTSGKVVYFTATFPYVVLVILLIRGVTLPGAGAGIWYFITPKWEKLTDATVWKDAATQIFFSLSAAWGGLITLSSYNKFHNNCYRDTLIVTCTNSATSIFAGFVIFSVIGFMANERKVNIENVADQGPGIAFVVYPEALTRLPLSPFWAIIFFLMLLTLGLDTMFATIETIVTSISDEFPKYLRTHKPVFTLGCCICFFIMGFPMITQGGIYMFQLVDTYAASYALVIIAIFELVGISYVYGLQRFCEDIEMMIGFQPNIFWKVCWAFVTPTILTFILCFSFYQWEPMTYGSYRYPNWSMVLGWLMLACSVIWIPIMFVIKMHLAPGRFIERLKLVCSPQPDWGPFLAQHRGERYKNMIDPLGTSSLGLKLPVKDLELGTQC
Put plainly: (§2) Inhibition of [3H]glycine uptake at human GlyT2 by radiometric assay.

The target of a further data set is Nociceptin receptor (Homo sapiens, UniProt P41146). In words: Displacement of [3H]NOP from human NOP receptors expressed in HEK293 cells. Format: cell-based. Background: In a radioligand displacement assay an active substance lowers the binding of a labelled ligand.
Sequence of Nociceptin receptor (P41146 whole entry): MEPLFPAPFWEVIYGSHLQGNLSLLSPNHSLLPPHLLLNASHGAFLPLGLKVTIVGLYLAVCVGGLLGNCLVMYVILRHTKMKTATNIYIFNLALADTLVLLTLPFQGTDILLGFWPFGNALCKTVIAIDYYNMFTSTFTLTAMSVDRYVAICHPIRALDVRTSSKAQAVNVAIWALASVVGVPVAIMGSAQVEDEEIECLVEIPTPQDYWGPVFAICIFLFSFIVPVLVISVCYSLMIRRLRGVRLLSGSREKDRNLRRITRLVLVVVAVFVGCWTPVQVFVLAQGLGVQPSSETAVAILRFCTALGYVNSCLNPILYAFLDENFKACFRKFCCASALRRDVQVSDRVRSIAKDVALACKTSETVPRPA
Data set [7] in a line: Intrinsic clearance in rat microsome. The data set is classed as ADME. The following applies: microsomes.
Data set [8] in a line: Ratio of drug level in brain against plasma in rat. The data set is classed as ADME, organism-based. The settings on record: read-out: BPR.
Data set [9] is described as follows: Oral bioavailability in rat. The following applies: in vivo. Format: ADME, organism-based.
The nature of data set [10]: Clearance in rat. The data set is classed as ADME, organism-based. The following applies: in vivo.
Data set [11] can be described thus: Volume of distribution in rat. Format: ADME, organism-based. The following applies: in vivo, read-out: Vss.
Data set [12] addresses T3, Sodium- and chloride-dependent glycine transporter 1 (Homo sapiens) (UniProt P48067).
T3 sequence (whole entry): T1 sequence (P48067 whole entry)
The description is as §1.

The target of data set [13] is T4, Sodium- and chloride-dependent glycine transporter 2 (Homo sapiens) (UniProt Q9Y345).
T4 sequence (whole entry): T2 sequence (Q9Y345 whole entry)
The description is as §2.

Data set [14] in a line: Oral bioavailability in mouse. Format: ADME, organism-based. The following applies: in vivo.
A short description of data set [15]: Clearance in mouse. The data set is classed as ADME, organism-based. The settings on record: in vivo.
Data set [16] is described as follows: Volume of distribution in mouse. Format: ADME, organism-based. The following applies: in vivo, read-out: Vss.

Structures are written as SMILES. The source made the active and inactive calls. No cut-off for these calls is given here. Bounds are passed on as bounds.

Sequence of Voltage-gated inwardly rectifying potassium channel KCNH2 (Q12809 whole entry): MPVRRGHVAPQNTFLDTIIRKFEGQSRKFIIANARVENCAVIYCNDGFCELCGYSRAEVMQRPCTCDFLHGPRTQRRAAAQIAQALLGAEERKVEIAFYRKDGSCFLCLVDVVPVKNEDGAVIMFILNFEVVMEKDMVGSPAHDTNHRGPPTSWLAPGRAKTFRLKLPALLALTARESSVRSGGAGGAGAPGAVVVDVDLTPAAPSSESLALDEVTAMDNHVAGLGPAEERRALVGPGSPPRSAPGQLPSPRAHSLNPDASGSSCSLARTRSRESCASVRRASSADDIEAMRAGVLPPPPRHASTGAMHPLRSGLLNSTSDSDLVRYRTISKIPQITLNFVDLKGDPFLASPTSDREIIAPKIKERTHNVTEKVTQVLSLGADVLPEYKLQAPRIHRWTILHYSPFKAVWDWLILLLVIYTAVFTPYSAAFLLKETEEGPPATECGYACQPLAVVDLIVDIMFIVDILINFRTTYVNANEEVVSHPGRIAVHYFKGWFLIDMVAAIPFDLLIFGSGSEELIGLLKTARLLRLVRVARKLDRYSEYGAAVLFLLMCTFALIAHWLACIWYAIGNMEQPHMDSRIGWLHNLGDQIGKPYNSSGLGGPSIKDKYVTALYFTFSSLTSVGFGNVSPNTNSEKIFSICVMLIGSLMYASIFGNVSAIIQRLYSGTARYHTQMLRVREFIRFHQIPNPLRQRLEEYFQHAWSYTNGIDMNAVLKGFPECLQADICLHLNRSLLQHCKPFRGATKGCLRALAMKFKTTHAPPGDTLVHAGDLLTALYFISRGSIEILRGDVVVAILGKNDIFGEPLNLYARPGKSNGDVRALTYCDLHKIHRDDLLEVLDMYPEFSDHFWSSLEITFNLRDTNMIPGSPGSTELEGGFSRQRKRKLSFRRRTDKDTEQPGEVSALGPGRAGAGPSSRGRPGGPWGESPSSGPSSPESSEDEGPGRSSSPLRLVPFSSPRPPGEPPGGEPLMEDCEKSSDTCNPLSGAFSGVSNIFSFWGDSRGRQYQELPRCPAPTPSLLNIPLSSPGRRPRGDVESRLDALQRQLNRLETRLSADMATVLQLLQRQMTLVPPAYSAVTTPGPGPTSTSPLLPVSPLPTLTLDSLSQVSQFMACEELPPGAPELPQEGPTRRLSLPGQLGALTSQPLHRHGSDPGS

What is called microsomal CLint is a measure of how fast metabolising enzymes remove a compound, apart from limits set by blood flow. Lower therefore signals slow turnover. The term IC50 denotes the concentration that gives 50% inhibition. High values mean weaker potency in that assay, low ones greater potency in that assay. As a reminder, the pKa is the negative logarithm of the acid dissociation constant. Low readings indicate a stronger acid or weaker base, high ones a weaker acid or stronger base. As usually defined, the EC50 is the concentration giving half of the maximal effect. As to `O=C1NCC(c2ccccc2)C12CCN(C1CCCCC1(O)c1ccc(F)cc1)CC2` (single isomer, unassigned; diastereomer 1), the microsomal CLint in data set [1] came out at 13 µL/min/mg; in [2], 44 µL/min/mg. The IC50 is 1.8 µM in data set [3] and above 10 µM at Nociceptin receptor (hek293). The compound also yielded a pKa in [4] of 8.54. In addition, the EC50 in data set [5] was 0.07 µM; in data set [6], above 30 µM.

Broadly, the bioavailability is dose-corrected exposure relative to a reference, in per cent. In general, clearance refers to the volume of plasma or blood freed of the substance per unit of time. A high value points to efficient removal. In the case of `O=C1NCN(c2ccccc2)C12CCN(C1CCCCC1c1ccccc1)CC2` (stereo not given), the values for the microsomal CLint in data set [7] and in data set [2] were 240 µL/min/mg and 68 µL/min/mg, respectively. Also, the Kp in data set [8] was 1.6. Further, in [9], the bioavailability amounted to 8%. The clearance in [10] stood at 120 mL/min/kg. Moreover, the Vd in [11] is 7.3 L/kg.

`O=C1NCC(c2ccccc2)C12CCN(C1CCCCC1(O)c1ccc(F)cc1)CC2` (single isomer, unassigned; diastereomer 3): in data set [6], the EC50 was above 30 µM. In addition, the IC50 at Nociceptin receptor is above 10 µM.

In [4], `O=C1NCC(c2ccc(F)cc2)C12CCN(C1CCCCC1(O)c1ccccc1)CC2` (stereo not given) returned a pKa of 6.89. Also, the Activity in [12] worked out at 91 nM. Besides, the result in data set [13] was inactive.

For `O=C1NC[C@@H](c2ccccc2)C12CCN(C1CCCCC1c1ccccc1)CC2` (stereo in doubt; 27), the microsomal CLint in [1] came out at 36 µL/min/mg; in [2], 23 µL/min/mg. Besides, the Kp in [8] was 5.2. The results for the clearance in data set [10] and in data set [15] were 63 mL/min/kg and 99 mL/min/kg, respectively. Besides, the Vd came out at 4.3 L/kg in data set [11] and 8.9 L/kg in data set [16]. This compound also had a bioavailability in [14] of 27%. The IC50 in data set [3] stood at 1.4 µM. This compound also gave a pKa in data set [4] of 8.85. In [5], this compound gave an EC50 of 0.061 µM.

In the case of `O=C1NC[C@@H](c2ccccc2)C12CCN(C1CCCCC1c1ccccc1)CC2` (stereo in doubt; 3), the EC50 in data set [5] is 0.232 µM; in data set [6] it was 25 µM. The compound also came in with an IC50 on Nociceptin receptor above 10 µM.

`O=C1NCN(c2ccccc2)C12CCN(C1CCCCC1(O)c1ccc(F)cc1)CC2` (stereo not given): the microsomal CLint is 499 µL/min/mg in data set [7] and 78 µL/min/mg in data set [2]. In data set [5], this compound returned an EC50 of 0.024 µM.
